Test results: article PMC9161374 (Science Translational Medicine, 2022)
Several values for one entry are separate records, joined by “and”; a condition that tells them apart may be missing. Equal entries are not always repeated.

What was measured:
[1] = tested on: SARS-CoV-2 replicon system (pBAC-SARS-CoV-2-Replicon-Luc); experiment: microbe, parasite or virus in culture; type: cell-based; conditions: Severe acute respiratory syndrome coronavirus 2, HEK-293T, 60 h
SARS-CoV-2 (B.1) = experiment: Anti-SARS-CoV-2 activity in Vero E6 cells (viral yield by qRT-PCR); type: cell-based
[2] = tested on: SARS-CoV-2 (Beta, B.1.351); experiment: microbe, parasite or virus in culture; type: cell-based; conditions: for % Inhibition: beta
[3] = tested on: SARS-CoV-2 (Delta, B.1.617.2); experiment: microbe, parasite or virus in culture; type: cell-based; conditions: for % Inhibition: delta
[4] = tested on: SARS-CoV-2 (B.1) in Huh7 cells; experiment: Anti-SARS-CoV-2 activity in Huh7 cells (viral yield by qRT-PCR); type: cell-based; conditions: B.1, MOI 0.05, 48 h
[5] = CCK-8 cell viability assay; type: cell-based, African green monkey; conditions: African green monkey; Vero E6 cells, 48 h, CCK8
Method in brief: (§1)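 Vero E6 cells, 20,000/well, exposed to compound at 0–200 μM (0, 0.01, 0.1, 1, 5, 10, 50, 75, 100, 200 μM) for 48 h; viability read by CCK-8 and expressed as percentage versus drug concentration, mean ± SD.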

Vero E6 cells = experiment: CCK-8 cell viability assay; type: cell-based, African green monkey; conditions: individual replicate values, Fig.S4
Method in brief: as §1

## CC(C)CC(=O)OC[C@H]1O[C@@](C#N)(c2ccc3c(N)ncnn23)[C@H](O)[C@@H]1O [ATV017]
[1]; read-out: EC50 (Confidence 95%), replicon
  EC50: 433 nM
[1]; read-out: EC90 (Confidence 95%), replicon
  EC90: 576 nM
SARS-CoV-2 (B.1); 0.1 μM, replicates, sheet Fig.S3
  % Inhibition: 0%
SARS-CoV-2 (B.1); 0.5 μM, replicates, sheet Fig.S3
  % Inhibition: 0%
SARS-CoV-2 (B.1); 1 μM, replicates, sheet Fig.S3
  % Inhibition: 65.5016%
SARS-CoV-2 (B.1); 2 μM, replicates, sheet Fig.S3
  % Inhibition: 89.9686%
SARS-CoV-2 (B.1); 5 μM, replicates, sheet Fig.S3
  % Inhibition: 91.0527%
SARS-CoV-2 (B.1); 10 μM, replicates, sheet Fig.S3
  % Inhibition: 91.8254%
SARS-CoV-2 (B.1); B.1, 0.01 uM, Vero E6, replicates
  % Inhibition: 0%
SARS-CoV-2 (B.1); B.1, 0.1 uM, Vero E6, replicates
  % Inhibition: 0%
SARS-CoV-2 (B.1); B.1, 0.25 uM, Vero E6, replicates
  % Inhibition: 0%
SARS-CoV-2 (B.1); B.1, 0.5 uM, Vero E6, replicates
  % Inhibition: 0%
SARS-CoV-2 (B.1); B.1, 1 uM, Vero E6, replicates
  % Inhibition: 0%
SARS-CoV-2 (B.1); B.1, 5 uM, Vero E6, replicates, 5 µM
  % Inhibition: 99.7611%
SARS-CoV-2 (B.1); B.1, 10 uM, Vero E6, replicates, 10 µM
  % Inhibition: 99.9908%
SARS-CoV-2 (B.1); B.1, 50 uM, Vero E6, replicates, 50 µM
  % Inhibition: 99.9887%
SARS-CoV-2 (B.1); Severe acute respiratory syndrome coronavirus 2, Vero C1008, 0.1 μM, replicates, sheet Fig.S3
  inhibition at 0.1 µM: 0%
SARS-CoV-2 (B.1); Severe acute respiratory syndrome coronavirus 2, Vero C1008, 0.5 μM, replicates, sheet Fig.S3
  inhibition at 0.5 µM: 0%
SARS-CoV-2 (B.1); Severe acute respiratory syndrome coronavirus 2, Vero C1008, 1 μM, replicates, sheet Fig.S3
  inhibition at 1 µM: 62.2%
SARS-CoV-2 (B.1); Severe acute respiratory syndrome coronavirus 2, Vero C1008, 2 μM, replicates, sheet Fig.S3
  inhibition at 2 µM: 89.2%
SARS-CoV-2 (B.1); Severe acute respiratory syndrome coronavirus 2, Vero C1008, 5 μM, replicates, sheet Fig.S3
  inhibition at 5 µM: 92.3%
SARS-CoV-2 (B.1); Severe acute respiratory syndrome coronavirus 2, Vero C1008, 10 μM, replicates, sheet Fig.S3
  inhibition at 10 µM: 93.6%
SARS-CoV-2 (B.1); Severe acute respiratory syndrome coronavirus 2, Vero C1008, B.1, 0.01 uM, Vero E6, replicates
  inhibition at 0.01 µM: 0%
SARS-CoV-2 (B.1); Severe acute respiratory syndrome coronavirus 2, Vero C1008, B.1, 0.1 uM, Vero E6, replicates
  inhibition at 0.1 µM: 0%
SARS-CoV-2 (B.1); Severe acute respiratory syndrome coronavirus 2, Vero C1008, B.1, 0.25 uM, Vero E6, replicates
  inhibition at 0.25 µM: 0%
SARS-CoV-2 (B.1); Severe acute respiratory syndrome coronavirus 2, Vero C1008, B.1, 0.5 uM, Vero E6, replicates
  inhibition at 0.5 µM: 0%
SARS-CoV-2 (B.1); Severe acute respiratory syndrome coronavirus 2, Vero C1008, B.1, 1 uM, Vero E6, replicates
  inhibition at 1 µM: 0%
SARS-CoV-2 (B.1); Severe acute respiratory syndrome coronavirus 2, Vero C1008, B.1, 5 uM, Vero E6, replicates
  inhibition at 5 µM: 99.6%
SARS-CoV-2 (B.1); Severe acute respiratory syndrome coronavirus 2, Vero C1008, B.1, 10 uM, Vero E6, replicates
  inhibition at 10 µM: 99.9%
SARS-CoV-2 (B.1); Severe acute respiratory syndrome coronavirus 2, Vero C1008, B.1, 50 uM, Vero E6, replicates
  inhibition at 50 µM: 99.9%
SARS-CoV-2 (B.1); Severe acute respiratory syndrome coronavirus 2, Vero C1008, read-out: EC90 (Confidence 95%), Vero-E6, B.1
  EC90: 2480 nM
SARS-CoV-2 (B.1); Severe acute respiratory syndrome coronavirus 2, Vero C1008, MOI 0.05, 48 h
  EC50: 2190 nM
[2]; Severe acute respiratory syndrome coronavirus 2, Vero C1008, 48 h, read-out: EC50 in Vero E6 cells, SARS-CoV-2 (Beta, B.1.351)
  EC50: 2850 nM
[2]; Severe acute respiratory syndrome coronavirus 2, Vero C1008, beta, 0.01 uM, Vero E6, replicates
  inhibition at 0.01 µM: 0%
[2]; Severe acute respiratory syndrome coronavirus 2, Vero C1008, beta, 0.1 uM, Vero E6, replicates
  inhibition at 0.1 µM: 0%
[2]; Severe acute respiratory syndrome coronavirus 2, Vero C1008, beta, 0.25 uM, Vero E6, replicates
  inhibition at 0.25 µM: 0%
[2]; Severe acute respiratory syndrome coronavirus 2, Vero C1008, beta, 0.5 uM, Vero E6, replicates
  inhibition at 0.5 µM: 0%
[2]; Severe acute respiratory syndrome coronavirus 2, Vero C1008, beta, 1 uM, Vero E6, replicates
  inhibition at 1 µM: 0%
[2]; Severe acute respiratory syndrome coronavirus 2, Vero C1008, beta, 5 uM, Vero E6, replicates
  inhibition at 5 µM: 99.7%
[2]; Severe acute respiratory syndrome coronavirus 2, Vero C1008, beta, 10 uM, Vero E6, replicates
  inhibition at 10 µM: 99.9%
[2]; Severe acute respiratory syndrome coronavirus 2, Vero C1008, read-out: EC90 (Confidence 95%), Vero-E6, Beta B.1.351
  EC90: 3400 nM
[2]; 0.01 uM, Vero E6, replicates
  % Inhibition: 0%
[2]; 0.1 uM, Vero E6, replicates
  % Inhibition: 0%
[2]; 0.25 uM, Vero E6, replicates
  % Inhibition: 0%
[2]; 0.5 uM, Vero E6, replicates
  % Inhibition: 0%
[2]; 1 uM, Vero E6, replicates
  % Inhibition: 0%
[2]; 2 uM, Vero E6, replicates
  % Inhibition: 6.056% and 0%
[2]; 5 uM, Vero E6, replicates
  % Inhibition: 99.5481%
[2]; 10 uM, Vero E6, replicates
  % Inhibition: 99.9499%
[2]; 50 uM, Vero E6, replicates
  % Inhibition: 99.982%
[3]; Severe acute respiratory syndrome coronavirus 2, Vero C1008, 48 h, read-out: EC50 in Vero E6 cells, SARS-CoV-2 (Delta, B.1.617.2)
  EC50: 428 nM
[3]; Severe acute respiratory syndrome coronavirus 2, Vero C1008, delta, 0.01 uM, Vero E6, replicates
  inhibition at 0.01 µM: 0%
[3]; Severe acute respiratory syndrome coronavirus 2, Vero C1008, delta, 0.1 uM, Vero E6, replicates
  inhibition at 0.1 µM: 0%
[3]; Severe acute respiratory syndrome coronavirus 2, Vero C1008, delta, 0.25 uM, Vero E6, replicates
  inhibition at 0.25 µM: 0%
[3]; Severe acute respiratory syndrome coronavirus 2, Vero C1008, delta, 0.5 uM, Vero E6, replicates
  inhibition at 0.5 µM: 82.8%
[3]; Severe acute respiratory syndrome coronavirus 2, Vero C1008, delta, 1 uM, Vero E6, replicates
  inhibition at 1 µM: 90.3%
[3]; Severe acute respiratory syndrome coronavirus 2, Vero C1008, delta, 2 uM, Vero E6, replicates
  inhibition at 2 µM: 94.4%
[3]; Severe acute respiratory syndrome coronavirus 2, Vero C1008, delta, 5 uM, Vero E6, replicates
  inhibition at 5 µM: 93.9%
[3]; Severe acute respiratory syndrome coronavirus 2, Vero C1008, delta, 10 uM, Vero E6, replicates
  inhibition at 10 µM: 100%
[3]; Severe acute respiratory syndrome coronavirus 2, Vero C1008, read-out: EC90 (Confidence 95%), Vero-E6, Delta B.1.617.2
  EC90: 516 nM
[3]; 0.01 uM, Vero E6, replicates
  % Inhibition: 0%
[3]; 0.1 uM, Vero E6, replicates
  % Inhibition: 0%
[3]; 0.25 uM, Vero E6, replicates
  % Inhibition: 0%
[3]; 0.5 uM, Vero E6, replicates
  % Inhibition: 80.6558%
[3]; 1 uM, Vero E6, replicates
  % Inhibition: 88.2825%
[3]; 2 uM, Vero E6, replicates
  % Inhibition: 91.1914%
[3]; 5 uM, Vero E6, replicates
  % Inhibition: 90.8502%
[3]; 10 uM, Vero E6, replicates
  % Inhibition: 99.8554%
[3]; 50 uM, Vero E6, replicates
  % Inhibition: 99.5879%
[4]; Severe acute respiratory syndrome coronavirus 2, Huh-7, read-out: EC50 (Confidence 95%) in Huh7 cells
  EC50: 905 nM
[4]; Severe acute respiratory syndrome coronavirus 2, Huh-7, read-out: EC90 (Confidence 95%) in Huh7 cells
  EC90: 1170 nM
[5]
  CC50 at 48 h: > 50000 nM
Vero E6 cells; 1 μM compound, 1 µM
  cell viability (% of control): 88.7524 % of control and 100.803 % of control and 120.919 % of control
Vero E6 cells; 2 μM compound, 2 µM
  cell viability (% of control): 88.0108 % of control and 98.9031 % of control and 128.104 % of control
Vero E6 cells; 5 μM compound, 5 µM
  cell viability (% of control): 90.8382 % of control and 109.656 % of control and 135.798 % of control
Vero E6 cells; 10 μM compound, 10 µM
  cell viability (% of control): 94.2217 % of control and 115.404 % of control and 120.363 % of control
Vero E6 cells; 20 μM compound, 20 µM
  cell viability (% of control): 80.7802 % of control and 92.136 % of control and 131.024 % of control
Vero E6 cells; 50 μM compound, 50 µM
  cell viability (% of control): 71.9737 % of control and 85.3225 % of control and 97.3272 % of control
